The target in one assay is hCA II (Homo sapiens, UniProt P00918). The assay can be described thus: stopped-flow CO2 hydrase assay, hCA II. The following applies: read-out: Ki hCA II; stopped-flow technique, mean from three different assays.
The target of the next assay is hCA IX (Homo sapiens, UniProt Q16790). The assay can be described thus: stopped-flow CO2 hydrase assay, hCA IX.
Another assay has as its target hCA I (Homo sapiens, UniProt P00915). Put plainly: stopped-flow CO2 hydrase assay, hCA I. Particulars: read-out: Ki hCA I; stopped-flow technique, mean from three different assays.
Setting [1] is: read-out: Ki hCA IX, stopped-flow technique, mean from three different assays.

Like-named read-outs stand apart in the source and are kept apart here. A value given as a limit tells only on which side of the number the result lay.

hCA I, sequence (P00915 whole entry): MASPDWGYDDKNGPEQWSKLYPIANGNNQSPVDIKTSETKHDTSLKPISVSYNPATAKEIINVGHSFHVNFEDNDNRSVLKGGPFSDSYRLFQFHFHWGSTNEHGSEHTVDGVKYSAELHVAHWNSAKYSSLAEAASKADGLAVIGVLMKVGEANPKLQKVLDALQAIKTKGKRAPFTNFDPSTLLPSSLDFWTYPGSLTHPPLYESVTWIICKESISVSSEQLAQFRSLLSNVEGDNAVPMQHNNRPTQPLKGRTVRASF
Description for hCA II: (§1) An SX.18MV-R Applied Photophysics (Oxford, U.K.) stopped-flow instrument has been used to assay the catalytic/inhibition of various CA isozymes.[38] […] The inhibition constants were obtained by nonlinear least-squares methods using the Cheng–Prusoff equation, as reported earlier,[32] and represent the mean from at least three different determinations.
Description for hCA IX: as §1

Broadly, the Ki is the dissociation constant of the complex between target and ligand, obtained from inhibition or displacement. On to `COc1cc(/C=C/C(=O)OCCCCCCCN(CCCOC(=O)c2c3ccccc3cc3ccccc23)CCCOc2ccc3ccc(=O)oc3c2)cc(OC)c1OC` [Compound 21, (E)-3-((3-((2-Oxo-2H-chromen-7-yl)oxy)propyl)(7-((3-(3,4,5-trimethoxyphenyl)acryloyl)oxy)heptyl)amino)propyl Anthracene-9-carboxylate], for which the Ki on hCA II is more than 10000 nM; on hCA IX (setting [1]) it was 14.2 nM; at hCA I it was more than 10000 nM.

`COc1cc(/C=C/C(=O)OCCCCCCN(CCCOC(=O)c2cc(OC)c(OC)c(OC)c2)CCCOc2ccc3ccc(=O)oc3c2)cc(OC)c1OC` [Compound 11, (E)-3-((3-((2-Oxo-2H-chromen-7-yl)oxy)propyl)(6-((3-(3,4,5-trimethoxyphenyl)acryloyl)oxy)hexyl)amino)propyl 3,4,5-Trimethoxybenzoate]: the Ki was more than 10000 nM on hCA II, 50.2 nM at hCA IX (setting [1]) and more than 10000 nM on hCA I.

For `O=C(OCCCCCCN(CCCOC(=O)c1c2ccccc2cc2ccccc12)CCCOc1ccc2ccc(=O)oc2c1)c1c2ccccc2cc2ccccc12` [Compound 18, 3-((6-((Anthracene-9-carbonyl)oxy)hexyl)(3-((2-oxo-2H-chromen-7-yl)oxy)propyl)amino)propyl Anthracene-9-carboxylate], the Ki at hCA II was more than 10000 nM; at hCA IX (setting [1]), 166 nM; on hCA I, more than 10000 nM.

Take `COc1cc(/C=C/C(=O)OCCCCCCN(CCCOC(=O)/C=C/c2cc(OC)c(OC)c(OC)c2)CCCOc2ccc3ccc(=O)oc3c2)cc(OC)c1OC` [Compound 10, (E)-6-((3-((2-Oxo-2H-chromen-7-yl)oxy)propyl)(3-(((E)-3-(3,4,5-trimethoxyphenyl)acryloyl)oxy)propyl)amino)hexyl 3-(3,4,5-Trimethoxyphenyl)acrylate]: the Ki at hCA II was more than 10000 nM; at hCA IX it was less than 10 nM; on hCA IX (setting [1]), 8.1 nM; at hCA I, more than 10000 nM.

As to `COc1cc(/C=C/C(=O)OCCCCCCCN(CCCOC(=O)/C=C/c2cc(OC)c(OC)c(OC)c2)CCCOc2ccc3ccc(=O)oc3c2)cc(OC)c1OC` [Compound 19, (E)-7-((3-((2-Oxo-2H-chromen-7-yl)oxy)propyl)(3-(((E)-3-(3,4,5-trimethoxyphenyl)acryloyl)oxy)propyl)amino)heptyl 3-(3,4,5-Trimethoxyphenyl)acrylate], the figures for the Ki at hCA II, on hCA IX (setting [1]) and at hCA I were more than 10000 nM, 27.8 nM and more than 10000 nM, respectively.

As to `COc1cc(/C=C/C(=O)OCCCCCN(CCCOC(=O)/C=C/c2cc(OC)c(OC)c(OC)c2)CCCOc2ccc3ccc(=O)oc3c2)cc(OC)c1OC` [Compound 1, (E)-5-((3-((2-Oxo-2H-chromen-7-yl)oxy)propyl)(3-(((E)-3-(3,4,5-trimethoxyphenyl)acryloyl)oxy)propyl)amino)pentyl 3-(3,4,5-Trimethoxyphenyl)acrylate], the results for the Ki at hCA II, at hCA IX (setting [1]) and at hCA I were more than 10000 nM, 39.5 nM and more than 10000 nM, respectively.

As to `COc1cc(C(=O)OCCCCCCCN(CCCOC(=O)c2cc(OC)c(OC)c(OC)c2)CCCOc2ccc3ccc(=O)oc3c2)cc(OC)c1OC` [Compound 23, 7-((3-((2-Oxo-2H-chromen-7-yl)oxy)propyl)(3-((3,4,5-trimethoxybenzoyl)oxy)propyl)amino)heptyl 3,4,5-Trimethoxybenzoate], the Ki at hCA II was more than 10000 nM; on hCA IX (setting [1]), 18.3 nM; at hCA I it was more than 10000 nM.

As to `COc1cc(C(=O)OCCCCCCCN(CCCOC(=O)c2c3ccccc3cc3ccccc23)CCCOc2ccc3ccc(=O)oc3c2)cc(OC)c1OC` [Compound 24, 3-((3-((2-Oxo-2H-chromen-7-yl)oxy)propyl)(7-((3,4,5-trimethoxybenzoyl)oxy)heptyl)amino)propyl Anthracene-9-carboxylate], the Ki was more than 10000 nM on hCA II, 38.5 nM at hCA IX (setting [1]) and more than 10000 nM on hCA I.

Regarding `COc1cc(/C=C/C(=O)OCCCN(CCCCCCOC(=O)c2c3ccccc3cc3ccccc23)CCCOc2ccc3ccc(=O)oc3c2)cc(OC)c1OC` [Compound 16, (E)-6-((3-((2-Oxo-2H-chromen-7-yl)oxy)propyl)(3-((3-(3,4,5-trimethoxyphenyl)acryloyl)oxy)propyl)amino)hexyl Anthracene-9-carboxylate], the inhibitory constant (Ki) on hCA II was more than 10000 nM; on hCA IX (setting [1]) it was 148 nM; at hCA I, more than 10000 nM.

For `COc1cc(/C=C/C(=O)OCCCCCN(CCCOC(=O)c2c3ccccc3cc3ccccc23)CCCOc2ccc3ccc(=O)oc3c2)cc(OC)c1OC` [Compound 3, (E)-3-((3-((2-Oxo-2H-chromen-7-yl)oxy)propyl)(5-((3-(3,4,5-trimethoxyphenyl)acryloyl)oxy)pentyl)amino)propyl Anthracene-9-carboxylate], the Ki at hCA II is more than 10000 nM; on hCA IX, less than 10 nM; at hCA IX (setting [1]) it was 7.9 nM; at hCA I it was more than 10000 nM.

Regarding `COc1cc(/C=C/C(=O)OCCCN(CCCCCCOC(=O)c2cc(OC)c(OC)c(OC)c2)CCCOc2ccc3ccc(=O)oc3c2)cc(OC)c1OC` [Compound 13, (E)-6-((3-((2-Oxo-2H-chromen-7-yl)oxy)propyl)(3-((3-(3,4,5-trimethoxyphenyl)acryloyl)oxy)propyl)amino)hexyl 3,4,5-Trimethoxybenzoate], the Ki was more than 10000 nM at hCA II, 71.7 nM at hCA IX (setting [1]) and more than 10000 nM at hCA I.

For the compound `COc1cc(/C=C/C(=O)OCCCCCCN(CCCOC(=O)c2c3ccccc3cc3ccccc23)CCCOc2ccc3ccc(=O)oc3c2)cc(OC)c1OC` [Compound 12, (E)-3-((3-((2-Oxo-2H-chromen-7-yl)oxy)propyl)(6-((3-(3,4,5-trimethoxyphenyl)acryloyl)oxy)hexyl)amino)propyl Anthracene-9-carboxylate], the Ki at hCA II is more than 10000 nM; at hCA IX (setting [1]) it was 26.8 nM; at hCA I, more than 10000 nM.

Turning to `COc1cc(/C=C/C(=O)OCCCCCN(CCCOC(=O)c2cc(OC)c(OC)c(OC)c2)CCCOc2ccc3ccc(=O)oc3c2)cc(OC)c1OC` [Compound 2, (E)-3-((3-((2-Oxo-2H-chromen-7-yl)oxy)propyl)(5-((3-(3,4,5-trimethoxyphenyl)acryloyl)oxy)pentyl)amino)propyl 3,4,5-Trimethoxybenzoate], the Ki is more than 10000 nM on hCA II, 24.2 nM at hCA IX (setting [1]) and more than 10000 nM on hCA I.

Turning to `COc1cc(C(=O)OCCCN(CCCCCOC(=O)c2c3ccccc3cc3ccccc23)CCCOc2ccc3ccc(=O)oc3c2)cc(OC)c1OC` [Compound 8, 5-((3-((2-Oxo-2H-chromen-7-yl)oxy)propyl)(3-((3,4,5-trimethoxybenzoyl)oxy)propyl)amino)pentyl Anthracene-9-carboxylate], the Ki at hCA II was more than 10000 nM; at hCA IX (setting [1]), 93.7 nM; at hCA I it was more than 10000 nM.

For the compound `COc1cc(/C=C/C(=O)OCCCCCCCN(CCCOC(=O)c2cc(OC)c(OC)c(OC)c2)CCCOc2ccc3ccc(=O)oc3c2)cc(OC)c1OC` [Compound 20, (E)-3-((3-((2-Oxo-2H-chromen-7-yl)oxy)propyl)(7-((3-(3,4,5-trimethoxyphenyl)acryloyl)oxy)heptyl)amino)propyl 3,4,5-Trimethoxybenzoate], the Ki at hCA II is more than 10000 nM; on hCA IX, less than 10 nM; at hCA IX (setting [1]) it was 5.2 nM; at hCA I, more than 10000 nM.

With `COc1cc(/C=C/C(=O)OCCCN(CCCCCOC(=O)c2cc(OC)c(OC)c(OC)c2)CCCOc2ccc3ccc(=O)oc3c2)cc(OC)c1OC` [Compound 4, (E)-5-((3-((2-Oxo-2H-chromen-7-yl)oxy)propyl)(3-((3-(3,4,5-trimethoxyphenyl)acryloyl)oxy)propyl)amino)pentyl 3,4,5-Trimethoxybenzoate], the Ki is more than 10000 nM at hCA II, 58.8 nM on hCA IX (setting [1]) and more than 10000 nM on hCA I.

Regarding `COc1cc(/C=C/C(=O)OCCCN(CCCCCOC(=O)c2c3ccccc3cc3ccccc23)CCCOc2ccc3ccc(=O)oc3c2)cc(OC)c1OC` [Compound 7, (E)-5-((3-((2-Oxo-2H-chromen-7-yl)oxy)propyl)(3-((3-(3,4,5-trimethoxyphenyl)acryloyl)oxy)propyl)amino)pentyl Anthracene-9-carboxylate], the Ki at hCA II is more than 10000 nM; on hCA IX (setting [1]) it was 104 nM; at hCA I, more than 10000 nM.

On to `O=C(OCCCCCCCN(CCCOC(=O)c1c2ccccc2cc2ccccc12)CCCOc1ccc2ccc(=O)oc2c1)c1c2ccccc2cc2ccccc12` [Compound 27, 3-((7-((Anthracene-9-carbonyl)oxy)heptyl)(3-((2-oxo-2H-chromen-7-yl)oxy)propyl)amino)propyl Anthracene-9-carboxylate], for which the Ki on hCA II was more than 10000 nM; on hCA IX (setting [1]), 102 nM; on hCA I, more than 10000 nM.

Regarding `COc1cc(/C=C/C(=O)OCCCN(CCCCCCCOC(=O)c2cc(OC)c(OC)c(OC)c2)CCCOc2ccc3ccc(=O)oc3c2)cc(OC)c1OC` [Compound 22, (E)-7-((3-((2-Oxo-2H-chromen-7-yl)oxy)propyl)(3-((3-(3,4,5-trimethoxyphenyl)acryloyl)oxy)propyl)amino)heptyl 3,4,5-Trimethoxybenzoate], the Ki at hCA II was more than 10000 nM; on hCA IX (setting [1]), 43.8 nM; on hCA I, more than 10000 nM.

For the compound `COc1cc(C(=O)OCCCCCN(CCCOC(=O)c2c3ccccc3cc3ccccc23)CCCOc2ccc3ccc(=O)oc3c2)cc(OC)c1OC` [Compound 6, 3-((3-((2-Oxo-2H-chromen-7-yl)oxy)propyl)(5-((3,4,5-trimethoxybenzoyl)oxy)pentyl)amino)propyl Anthracene-9-carboxylate], the Ki on hCA II is more than 10000 nM; at hCA IX (setting [1]), 36.2 nM; at hCA I, more than 10000 nM.

As to `O=C(OCCCCCN(CCCOC(=O)c1c2ccccc2cc2ccccc12)CCCOc1ccc2ccc(=O)oc2c1)c1c2ccccc2cc2ccccc12` [Compound 9, 3-((5-((Anthracene-9-carbonyl)oxy)pentyl)(3-((2-oxo-2H-chromen-7-yl)oxy)propyl)amino)propyl Anthracene-9-carboxylate], the results for the Ki on hCA II, on hCA IX (setting [1]) and at hCA I were more than 10000 nM, 137 nM and more than 10000 nM, respectively.

The values are drawn from PMC9661477, “New Dual P-Glycoprotein (P-gp) and Human Carbonic Anhydrase XII (hCA XII) Inhibitors as Multidrug Resistance (MDR) Reversers in Cancer Cells” (Journal of Medicinal Chemistry, 2022).
